Measurements taken from US9914732B2, “Diazabicyclo[4.3.1]decane derivatives for treatment of psychiatric disorders” (Max-Planck-Gesellschaft zur Forderung der Wissenschaften …, priority 2014, dated 2018).

Columns and labels:
FKBP51 = molecular target: T1, FKBP51 (Homo sapiens, UniProt Q13451); assay: Fluorescence polarization (FP) assay, binding to the FK506-binding domain of FKBP51; details: FK506-binding domain of FKBP51 (FKBP51FK1), competition with fluorescent ligand 2b
T1 sequence (Q13451 42-130 limits assumed): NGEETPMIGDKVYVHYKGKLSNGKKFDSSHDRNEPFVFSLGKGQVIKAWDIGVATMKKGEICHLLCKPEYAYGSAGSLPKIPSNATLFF
Outline: (§1)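 Competitive FP with fluorescent ligand 2b at 20 nM (2× concentration) and FK1 domain at 280 nM (FKBP51) or 400 nM (FKBP52) in 20 mM HEPES pH 8, 0.01% Triton-X100. Anisotropy read after 30 min at room temperature (ex 485, em 535 nm), in duplicate; IC50 by four-parameter fit, Ki via Wang competitive equation.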

FKBP52 = molecular target: T2, FKBP52 (Homo sapiens, UniProt Q02790); assay: Fluorescence polarization (FP) assay, binding to the FK506-binding domain of FKBP52; details: FK506-binding domain of FKBP52 (FKBP52FK1), competition with fluorescent ligand 2b
T2 sequence (Q02790 50-138 limits assumed): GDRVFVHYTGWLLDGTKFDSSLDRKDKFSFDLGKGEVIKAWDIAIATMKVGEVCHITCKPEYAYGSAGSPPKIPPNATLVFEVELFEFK
Outline: as §1

## COCC1CN(Cc2cnnn2-c2ccccc2)C(=O)C2CCCC1N2S(=O)(=O)c1cccc(F)c1 (stereo in doubt) [Compound N29, (1S,5R,6R)-10-((3-fluorophenyl)sulfonyl)-5-(methoxymethyl)-3-((1-phenyl-1H-1,2,3-triazol-5-yl)methyl)-3,10-diazabicyclo[4.3.1]decan-2-one]
FKBP51
  Ki: 100 to 500 nM
FKBP52
  Ki: 100 to 500 nM

## C=CC1CN(Cc2ccccn2)C(=O)C2CCCC1N2S(=O)(=O)c1ccc(NC(C)=O)c(Cl)c1 (stereo in doubt) [Compound K21, N-(2-chloro-4-(((1S,5R,6R)-2-oxo-3-(pyridin-2-ylmethyl)-5-vinyl-3,10-diazabicyclo[4.3.1]decan-10-yl)sulfonyl)phenyl)acetamide]
FKBP51
  Ki: 100 to 500 nM
FKBP52
  Ki: 100 to 500 nM

## C#CCN1C[C@H](COC)[C@H]2CCC[C@@H](C1=O)N2S(=O)(=O)c1cc(Cl)c(NC(C)=O)c(Cl)c1 [Compound N9, N-(2,6-dichloro-4-(((1S,5S,6R)-5-(methoxymethyl)-2-oxo-3-(prop-2-yn-1-yl)-3,10-diazabicyclo[4.3.1]decan-10-yl)sulfonyl)phenyl)acetamide]
FKBP51
  Ki: 100 to 500 nM
FKBP52
  Ki: 100 to 500 nM

## C=C[C@@H]1CN(Cc2ccccn2)C(=O)[C@@H]2CCC[C@H]1N2S(=O)(=O)c1cc(Cl)cc(C(=O)OC)c1 [Compound K25, methyl 3-chloro-5-(((1S,5R,6R)-2-oxo-3-(pyridin-2-ylmethyl)-5-vinyl-3,10-diazabicyclo[4.3.1]decan-10-yl)sulfonyl)benzoate]
FKBP51
  Ki: ≤ 100 nM
FKBP52
  Ki: ≤ 100 nM

## C=C[C@@H]1CN(CCCCOC)C(=O)[C@@H]2CCC[C@H]1N2S(=O)(=O)c1cc(Cl)cc(Cl)c1 [Compound J3, (1S,5R,6R)-10-((3,5-dichlorophenyl)sulfonyl)-3-(4-methoxybutyl)-5-vinyl-3,10-diazabicyclo[4.3.1]decan-2-one]
FKBP51
  Ki: 500 to 1000 nM
FKBP52
  Ki: 500 to 1000 nM

## CCC1CN(Cc2ccccn2)C(=O)C2CCCC1N2S(=O)(=O)c1cc(Cl)cc(Cl)c1 (stereo in doubt) [Compound M1, (1S,5R,6R)-10-((3,5-dichlorophenyl)sulfonyl)-5-ethyl-3-(pyridin-2-ylmethyl)-3,10-diazabicyclo[4.3.1]decan-2-one]
FKBP51
  Ki: ≤ 100 nM
FKBP52
  Ki: ≤ 100 nM

## COC[C@H]1CN(Cc2cnn[nH]2)C(=O)[C@@H]2CCC[C@H]1N2S(=O)(=O)c1cc(Br)cc(Br)c1 [Compound N18, (1S,5S,6R)-3-((1H-1,2,3-triazol-5-yl)methyl)-10-((3,5-dibromophenyl)sulfonyl)-5-(methoxymethyl)-3,10-diazabicyclo[4.3.1]decan-2-one]
FKBP51
  Ki: ≤ 100 nM
FKBP52
  Ki: ≤ 100 nM

## C=CC1CN(CC#N)C(=O)C2CCCC1N2S(=O)(=O)c1cc(Cl)cc(Cl)c1 (stereo in doubt) [Compound J16, 2-((1S,5R,6R)-10-((3,5-dichlorophenyl)sulfonyl)-2-oxo-5-vinyl-3,10-diazabicyclo[4.3.1]decan-3-yl)acetonitrile]
FKBP51
  Ki: 100 to 500 nM
FKBP52
  Ki: 100 to 500 nM

## C#CCN1CC(C=C)C2CCCC(C1=O)N2S(=O)(=O)c1cc(Cl)cc(Cl)c1 (stereo in doubt) [Compound J12, (1S,5R,6R)-10-((3,5-dichlorophenyl)sulfonyl)-3-(prop-2-yn-1-yl)-5-vinyl-3,10-diazabicyclo[4.3.1]decan-2-one]
FKBP51
  Ki: 100 to 500 nM
FKBP52
  Ki: 100 to 500 nM

## CCOC[C@H]1CN(Cc2ccccn2)C(=O)[C@@H]2CCC[C@H]1N2S(=O)(=O)c1cc(Cl)cc(Cl)c1 [Compound M6, (1S,5S,6R)-10-((3,5-dichlorophenyl)sulfonyl)-5-(ethoxymethyl)-3-(pyridin-2-ylmethyl)-3,10-diazabicyclo[4.3.1]decan-2-one]
FKBP51
  Ki: ≤ 100 nM
FKBP52
  Ki: ≤ 100 nM

## COC[C@H]1CN(Cc2cnn[nH]2)C(=O)[C@@H]2CCC[C@H]1N2S(=O)(=O)c1nc2ccccc2[nH]1 [Compound N28, (1S,5S,6R)-3-((1H-1,2,3-triazol-5-yl)methyl)-10-((1H-benzo[d]imidazol-2-yl)sulfonyl)-5-(methoxymethyl)-3,10-diazabicyclo[4.3.1]decan-2-one]
FKBP51
  Ki: ≤ 100 nM
FKBP52
  Ki: ≤ 100 nM

## COc1ccc(OCCN2C[C@H](C[C@H](C)O)C3CCCC(C2=O)N3S(=O)(=O)c2cc(Cl)cc(Cl)c2)cc1OC (single isomer, unassigned) [Compound D5]
FKBP51
  Ki: ≤ 100 nM
FKBP52
  Ki: ≤ 100 nM

## COC[C@H]1CN(Cc2cnnn2S(=O)(=O)c2ccccc2)C(=O)[C@@H]2CCC[C@H]1N2S(=O)(=O)c1cccc(F)c1 [Compound N32, (1S,5S,6R)-10-((3-fluorophenyl)sulfonyl)-5-(methoxymethyl)-3-((1-(phenylsulfonyl)-1H-1,2,3-triazol-5-yl)methyl)-3,10-diazabicyclo[4.3.1]decan-2-one]
FKBP51
  Ki: 100 to 500 nM
FKBP52
  Ki: 100 to 500 nM

## COC[C@H]1CN(Cc2cnn[nH]2)C(=O)[C@@H]2CCC[C@H]1N2S(=O)(=O)c1ccc(-c2ccccc2)nc1 [Compound N26, (1S,5S,6R)-3-((1H-1,2,3-triazol-5-yl)methyl)-5-(methoxymethyl)-10-((6-phenylpyridin-3-yl)sulfonyl)-3,10-diazabicyclo[4.3.1]decan-2-one]
FKBP51
  Ki: ≤ 100 nM
FKBP52
  Ki: ≤ 100 nM

## C=CC1CN(Cc2ccccn2)C(=O)C2CCCC1N2S(=O)(=O)c1ccc(OC)c(Cl)c1 (stereo in doubt) [Compound K10, (1S,5R,6R)-10-((3-chloro-4-methoxyphenyl)sulfonyl)-3-(pyridin-2-ylmethyl)-5-vinyl-3,10-diazabicyclo[4.3.1]decan-2-one]
FKBP51
  Ki: 100 to 500 nM
FKBP52
  Ki: 100 to 500 nM

## C=CC1CN(CCNC)C(=O)C2CCCC1N2S(=O)(=O)c1cc(Cl)cc(Cl)c1 (stereo in doubt) [Compound J19, (1S,5R,6R)-10-((3,5-dichlorophenyl)sulfonyl)-3-(2-(methylamino)ethyl)-5-vinyl-3,10-diazabicyclo[4.3.1]decan-2-one]
FKBP51
  Ki: 100 to 500 nM
FKBP52
  Ki: 100 to 500 nM

## C#CCN1C[C@H](COC)[C@H]2CCC[C@@H](C1=O)N2S(=O)(=O)c1cc(Br)cc(C(N)=O)c1 [Compound N5, 3-bromo-5-(((1S,5S,6R)-5-(methoxymethyl)-2-oxo-3-(prop-2-yn-1-yl)-3,10-diazabicyclo[4.3.1]decan-10-yl)sulfonyl)benzamide]
FKBP51
  Ki: 100 to 500 nM
FKBP52
  Ki: 100 to 500 nM

## C=C[C@@H]1CN(Cc2ccncn2)C(=O)[C@@H]2CCC[C@H]1N2S(=O)(=O)c1cc(Cl)cc(Cl)c1 [Compound J15, (1S,5R,6R)-10-((3,5-dichlorophenyl)sulfonyl)-3-(pyrimidin-4-ylmethyl)-5-vinyl-3,10-diazabicyclo[4.3.1]decan-2-one]
FKBP51
  Ki: 100 to 500 nM
FKBP52
  Ki: 100 to 500 nM

## COC[C@H]1CN(Cc2cnn[nH]2)C(=O)[C@@H]2CCC[C@H]1N2S(=O)(=O)c1cc(Cl)cc(C(N)=O)c1 [Compound N21, 3-(((1S,5S,6R)-3-((1H-1,2,3-triazol-5-yl)methyl)-5-(methoxymethyl)-2-oxo-3,10-diazabicyclo[4.3.1]decan-10-yl)sulfonyl)-5-chlorobenzamide]
FKBP51
  Ki: ≤ 100 nM
FKBP52
  Ki: ≤ 100 nM

## C#CCN1C[C@H](COC)[C@H]2CCC[C@@H](C1=O)N2S(=O)(=O)c1cccc(C(=O)OC)c1 [Compound N10, methyl 3-(((1S,5S,6R)-5-(methoxymethyl)-2-oxo-3-(prop-2-yn-1-yl)-3,10-diazabicyclo[4.3.1]decan-10-yl)sulfonyl)benzoate]
FKBP51
  Ki: 100 to 500 nM
FKBP52
  Ki: 100 to 500 nM

## C=CC1CN(CCCOC)C(=O)C2CCCC1N2S(=O)(=O)c1cc(Cl)cc(Cl)c1 (stereo in doubt) [Compound J2, (1S,5R,6R)-10-((3,5-dichlorophenyl)sulfonyl)-3-(3-methoxypropyl)-5-vinyl-3,10-diazabicyclo[4.3.1]decan-2-one]
FKBP51
  Ki: 500 to 1000 nM
FKBP52
  Ki: 500 to 1000 nM

## COC[C@H]1CN(Cc2cnnn2C(=O)c2ccccc2)C(=O)[C@@H]2CCC[C@H]1N2S(=O)(=O)c1cccc(F)c1 [Compound N31, (1S,5S,6R)-3-((1-benzoyl-1H-1,2,3-triazol-5-yl)methyl)-10-((3-fluorophenyl)sulfonyl)-5-(methoxymethyl)-3,10-diazabicyclo[4.3.1]decan-2-one]
FKBP51
  Ki: 100 to 500 nM
FKBP52
  Ki: 100 to 500 nM

## C#CCN1C[C@H](COC)[C@H]2CCC[C@@H](C1=O)N2S(=O)(=O)c1cc(Cl)cc(C(=O)OC)c1 [Compound N12, methyl 3-chloro-5-(((1S,5S,6R)-5-(methoxymethyl)-2-oxo-3-(prop-2-yn-1-yl)-3,10-diazabicyclo[4.3.1]decan-10-yl)sulfonyl)benzoate]
FKBP51
  Ki: 100 to 500 nM
FKBP52
  Ki: 100 to 500 nM

## C=CC1CN(Cc2cnccn2)C(=O)C2CCCC1N2S(=O)(=O)c1cc(Cl)cc(Cl)c1 (stereo in doubt) [Compound J14, (1S,5R,6R)-10-((3,5-dichlorophenyl)sulfonyl)-3-(pyrazin-2-ylmethyl)-5-vinyl-3,10-diazabicyclo[4.3.1]decan-2-one]
FKBP51
  Ki: 100 to 500 nM
FKBP52
  Ki: 100 to 500 nM

## C=C[C@@H]1CN(Cc2ccccn2)C(=O)[C@@H]2CCC[C@H]1N2S(=O)(=O)c1cc(Cl)c(NC(C)=O)c(Cl)c1 [Compound K22, N-(2,6-dichloro-4-(((1S,5R,6R)-2-oxo-3-(pyridin-2-ylmethyl)-5-vinyl-3,10-diazabicyclo[4.3.1]decan-10-yl)sulfonyl)phenyl)acetamide]
FKBP51
  Ki: ≤ 100 nM
FKBP52
  Ki: ≤ 100 nM

## COCCN1C[C@H](C(N)=O)[C@H]2CCC[C@@H](C1=O)N2S(=O)(=O)c1cc(Cl)cc(Cl)c1 [Compound B11, (1S,5S,6R)-10-((3,5-dichlorophenyl)sulfonyl)-3-(2-methoxyethyl)-2-oxo-3,10-diazabicyclo[4.3.1]decane-5-carboxamide]
FKBP51
  Ki: 100 to 500 nM
FKBP52
  Ki: 100 to 500 nM
